Assay results published in patent publication US20220133702A1, “CYSTIC FIBROSIS TRANSMEMBRANE CONDUCTANCE REGULATOR MODULATORS FOR TREATING AUTOSOMAL DOMINANT POLYCYSTIC KIDNEY DISEASE” (The Johns Hopkins University, priority 2020, published 2022).

System: HSP27, HSP70 and HSP90 in PN cells
Experiment: Western blot of heat shock proteins in cells
Format: cell-based, mouse
Details: 10 μM, 16 h
Description: FIG. 8A, FIG. 8B, FIG. 8C, FIG. 8D, FIG. 8E, FIG. 8F, FIG. 8G, and FIG. 8H show chaperone expression is altered in PH and PN cells by VX-809. […] Western blot showing expression of HSP27, HSP70 and HSP90 in VX-809 treated or control PN cells. […] (FIG. 8E). Western blot of HSP27, HSP70 and HSP90 in PH vs. PN cells. […] Whereas, Hsp70 is higher in PH vs. PN cells. Data were analyzed by non-parametric t test. Experiment was repeated 4-5 times. Cells were grown in 10-cm culture dishes at permissive conditions (33° C.) with y-interferon in culture media. Cells were then transferred to non-permissive conditions at 37° C., y-interferon free culture media and evaluated at full confluence. At day four, cells were treated with VX-809 (10 μM) for 16 h and harvested on fifth day for assay. *P<0.05., **P<0.01, ***P<0.001, ****P<0.0001;
To facilitate their growth in the kidney, cysts have developed an altered network of proteins that most likely serves to protect them from stress . Next, it was determined whether VX-809 would alter the levels of Hsps in pkd−/− mice and in PN cells. […] Hsp 27, 70 and 90 are all elevated in cystic kidneys compared to normal controls. […] There is no change in Hsp40. […] Both sets of data are consistent with an alteration in the heat shock response to cyst growth.

Cc1ccc(NC(=O)C2(c3ccc4c(c3)OC(F)(F)O4)CC2)nc1-c1cccc(C(=O)O)c1 [VX-809, lumacaftor]
reduced expression: Hsp27 expression | Hsp70 expression | Hsp90 expression
